Measurements taken from US20170071944A1, “MODULATORS OF TOLL-LIKE RECEPTORS FOR THE TREATMENT OF HIV” (Gilead Sciences, Inc., priority 2015, published 2017).

Tested on: immune cell subsets in PBMC cultures from HIV-1 infected subjects on cART
Assay: Induced immune cell activation in PBMC cultures from HIV-1 infected subjects on cART (flow cytometry)
Type: cell-based, human
Conditions: for B Cells CD69 % / B Cells CD69 Fold vs DMSO / B Cells CD80 % / B Cells CD80 Fold vs DMSO / DCs CD69 % / DCs CD69 Fold vs DMSO / DCs CD80 % / DCs CD80 Fold vs DMSO / CD4+ T Cells CD25 % / CD4+ T Cells CD25 Fold vs DMSO / CD4+ T Cells CD69 % / CD4+ T Cells CD69 Fold vs DMSO / CD4+ T Cells Perforin % / CD4+ T Cells Perforin Fold vs DMSO / CD8+ T Cells CD25 % / CD8+ T Cells CD25 Fold vs DMSO / CD8+ T Cells CD28 % / CD8+ T Cells CD28 Fold vs DMSO / CD8+ T Cells CD38 % / CD8+ T Cells CD38 Fold vs DMSO / CD8+ T Cells CD69 % / CD8+ T Cells CD69 Fold vs DMSO / Monocytes CD11c % / Monocytes CD11c Fold vs DMSO / Monocytes CD69 % / Monocytes CD69 Fold vs DMSO / Monocytes CD80 % / Monocytes CD80 Fold vs DMSO / NK Cells CD25 % / NK Cells CD25 Fold vs DMSO / NK Cells CD69 % / NK Cells CD69 Fold vs DMSO: 2 days, geometric mean; for B Cells CD69 % / B Cells CD69 Fold vs DMSO / B Cells CD80 % / B Cells CD80 Fold vs DMSO / DCs CD69 % / DCs CD69 Fold vs DMSO / DCs CD80 % / DCs CD80 Fold vs DMSO: N = 4; for CD4+ T Cells CD25 % / CD4+ T Cells CD25 Fold vs DMSO / CD4+ T Cells CD69 % / CD4+ T Cells CD69 Fold vs DMSO / CD4+ T Cells Perforin % / CD4+ T Cells Perforin Fold vs DMSO / CD8+ T Cells CD25 % / CD8+ T Cells CD25 Fold vs DMSO / CD8+ T Cells CD28 % / CD8+ T Cells CD28 Fold vs DMSO / CD8+ T Cells CD38 % / CD8+ T Cells CD38 Fold vs DMSO / CD8+ T Cells CD69 % / CD8+ T Cells CD69 Fold vs DMSO / Monocytes CD11c % / Monocytes CD11c Fold vs DMSO / Monocytes CD69 % / Monocytes CD69 Fold vs DMSO / Monocytes CD80 % / Monocytes CD80 Fold vs DMSO / NK Cells CD25 % / NK Cells CD25 Fold vs DMSO / NK Cells CD69 % / NK Cells CD69 Fold vs DMSO: N = 6
Description: TLR8 modulating compound affects activation of distinct cell populations, PBMCs were purified from HIV-1 infected subjects on cART, as described in Example 121 (anonymized participant IDs 184, 185, 188, 189, 190, and 191). […] After incubation, PBMCs were harvested and stained with antibodies conjugated to specific fluorophores (BD Biosciences) to delineate immune cell subsets: CD4 T cells (CD3+ CD4+ CD8-), CD8 T cells (CD3+ CD8+ CD4-), NK cells (CD3-CD56+ CD16+), monocytes (CD3-CD14+), B cells (CD3-CD19+), and peripheral dendritic cells (DCs), defined as positive for HLA-DR and negative for a panel of markers: CD3, CD14, CD16, CD19, CD20, CD56 (Lin-1 lineage panel, BD Biosciences).
Additional markers of activation, maturation, and effector function were included for cell subsets, as follows: CD4 and CD8 T cells (CD25, CD38, CD69, IFN-γ, granzyme B, perforin, TNF-α), NK cells (CD25, CD69, IFN-γ), monocytes (CD11c, CD16, CD80, CD86, CD163, TNF-α), B cells (CD40, CD69, CD80, CD86), and DC (CD11c, CD69, CD80, CD86, CD123, and CD163). Cells were stained for surface markers (CD3, CD4, CD8, CD11c, CD14, CD16, CD25, CD69, CD80, CD86, CD163), washed, treated with fixation and permeabilization buffer (eBioscience), and stained for intracellular markers (IFN-γ, granzyme B, perforin, TNF-α). Cells were evaluated by flow cytometry on a LSR Fortessa (BD Biosciences), and data was analyzed with FlowJo software (TreeStar).
Data are expressed as geometric mean percentage (%) and as geometric mean fold-activation (Fold) for each marker and for each PBMC subset obtained from 4 or 6 subjects, as indicated. Fold activation is calculated as a ratio of the % positive for each marker for each PBMC subset at the indicated concentration of the compound of Example 15 relative to % positive for DMSO treated samples. Fold activations that are 1.5 are in bold.

## CCCC[C@H](CO)Nc1nc(N)nc2cccnc12 [Example 15]
  Perforin in CD8+ T cells with treatment: did not increase
Example 15 10 nM
  B Cells CD69 %: 10.0%
  B Cells CD69 Fold vs DMSO: 1.2 fold
  B Cells CD80 %: 2.6%
  B Cells CD80 Fold vs DMSO: 1.6 fold
  DCs CD69 %: 0.3%
  DCs CD69 Fold vs DMSO: 0.1 fold
  DCs CD80 %: 49.8%
  DCs CD80 Fold vs DMSO: 1.8 fold
  CD4+ T Cells CD25 %: 1.5%
  CD4+ T Cells CD25 Fold vs DMSO: 0.6 fold
  CD4+ T Cells CD69 %: 5.7%
  CD4+ T Cells CD69 Fold vs DMSO: 0.7 fold
  CD4+ T Cells Perforin %: 11.8%
  CD4+ T Cells Perforin Fold vs DMSO: 1.5 fold
  CD8+ T Cells CD25 %: 0.2%
  CD8+ T Cells CD25 Fold vs DMSO: 0.6 fold
  CD8+ T Cells CD28 %: 0.1%
  CD8+ T Cells CD28 Fold vs DMSO: 0.9 fold
  CD8+ T Cells CD38 %: 25.3%
  CD8+ T Cells CD38 Fold vs DMSO: 0.9 fold
  CD8+ T Cells CD69 %: 3.7%
  CD8+ T Cells CD69 Fold vs DMSO: 0.8 fold
  Monocytes CD11c %: 0.4%
  Monocytes CD11c Fold vs DMSO: 0.6 fold
  Monocytes CD69 %: 0.8%
  Monocytes CD69 Fold vs DMSO: 0.3 fold
  Monocytes CD80 %: 33.0%
  Monocytes CD80 Fold vs DMSO: 1.1 fold
  NK Cells CD25 %: 0.2%
  NK Cells CD25 Fold vs DMSO: 0.4 fold
  NK Cells CD69 %: 0.8%
  NK Cells CD69 Fold vs DMSO: 0.4 fold
Example 15 100 nM
  B Cells CD69 %: 3.9%
  B Cells CD69 Fold vs DMSO: 0.5 fold
  B Cells CD80 %: 1.7%
  B Cells CD80 Fold vs DMSO: 1.1 fold
  DCs CD69 %: 1.0%
  DCs CD69 Fold vs DMSO: 0.4 fold
  DCs CD80 %: 67.2%
  DCs CD80 Fold vs DMSO: 2.4 fold
  CD4+ T Cells CD25 %: 3.9%
  CD4+ T Cells CD25 Fold vs DMSO: 1.7 fold
  CD4+ T Cells CD69 %: 7.7%
  CD4+ T Cells CD69 Fold vs DMSO: 1.0 fold
  CD4+ T Cells Perforin %: 10.4%
  CD4+ T Cells Perforin Fold vs DMSO: 1.3 fold
  CD8+ T Cells CD25 %: 0.3%
  CD8+ T Cells CD25 Fold vs DMSO: 1.0 fold
  CD8+ T Cells CD28 %: 0.1%
  CD8+ T Cells CD28 Fold vs DMSO: 1.1 fold
  CD8+ T Cells CD38 %: 29.2%
  CD8+ T Cells CD38 Fold vs DMSO: 1.0 fold
  CD8+ T Cells CD69 %: 3.4%
  CD8+ T Cells CD69 Fold vs DMSO: 0.7 fold
  Monocytes CD11c %: 3.6%
  Monocytes CD11c Fold vs DMSO: 5.2 fold
  Monocytes CD69 %: 1.8%
  Monocytes CD69 Fold vs DMSO: 0.6 fold
  Monocytes CD80 %: 47.7%
  Monocytes CD80 Fold vs DMSO: 1.6 fold
  NK Cells CD25 %: 0.8%
  NK Cells CD25 Fold vs DMSO: 1.6 fold
  NK Cells CD69 %: 1.1%
  NK Cells CD69 Fold vs DMSO: 0.6 fold
Example 15 1000 nM
  B Cells CD69 %: 9.1%
  B Cells CD69 Fold vs DMSO: 1.1 fold
  B Cells CD80 %: 2.2%
  B Cells CD80 Fold vs DMSO: 1.4 fold
  DCs CD69 %: 8.5%
  DCs CD69 Fold vs DMSO: 3.3 fold
  DCs CD80 %: 82.0%
  DCs CD80 Fold vs DMSO: 2.9 fold
  CD4+ T Cells CD25 %: 4.2%
  CD4+ T Cells CD25 Fold vs DMSO: 1.8 fold
  CD4+ T Cells CD69 %: 11.7%
  CD4+ T Cells CD69 Fold vs DMSO: 1.5 fold
  CD4+ T Cells Perforin %: 14.2%
  CD4+ T Cells Perforin Fold vs DMSO: 1.8 fold
  CD8+ T Cells CD25 %: 0.7%
  CD8+ T Cells CD25 Fold vs DMSO: 2.2 fold
  CD8+ T Cells CD28 %: 0.4%
  CD8+ T Cells CD28 Fold vs DMSO: 4.4 fold
  CD8+ T Cells CD38 %: 56.8%
  CD8+ T Cells CD38 Fold vs DMSO: 2.0 fold
  CD8+ T Cells CD69 %: 10.4%
  CD8+ T Cells CD69 Fold vs DMSO: 2.2 fold
  Monocytes CD11c %: 1.2%
  Monocytes CD11c Fold vs DMSO: 1.6 fold
  Monocytes CD69 %: 6.2%
  Monocytes CD69 Fold vs DMSO: 2.0 fold
  Monocytes CD80 %: 86.4%
  Monocytes CD80 Fold vs DMSO: 3.0 fold
  NK Cells CD25 %: 5.2%
  NK Cells CD25 Fold vs DMSO: 10.4 fold
  NK Cells CD69 %: 21.1%
  NK Cells CD69 Fold vs DMSO: 12.4 fold
Example 15 3000 nM
  B Cells CD69 %: 13.6%
  B Cells CD69 Fold vs DMSO: 1.7 fold
  B Cells CD80 %: 3.0%
  B Cells CD80 Fold vs DMSO: 1.9 fold
  DCs CD69 %: 23.2%
  DCs CD69 Fold vs DMSO: 8.9 fold
  DCs CD80 %: 57.1%
  DCs CD80 Fold vs DMSO: 2.0 fold
  CD4+ T Cells CD25 %: 3.0%
  CD4+ T Cells CD25 Fold vs DMSO: 1.3 fold
  CD4+ T Cells CD69 %: 13.1%
  CD4+ T Cells CD69 Fold vs DMSO: 1.7 fold
  CD4+ T Cells Perforin %: 17.0%
  CD4+ T Cells Perforin Fold vs DMSO: 2.1 fold
  CD8+ T Cells CD25 %: 0.9%
  CD8+ T Cells CD25 Fold vs DMSO: 3.0 fold
  CD8+ T Cells CD28 %: 0.5%
  CD8+ T Cells CD28 Fold vs DMSO: 4.7 fold
  CD8+ T Cells CD38 %: 56.8%
  CD8+ T Cells CD38 Fold vs DMSO: 2.0 fold
  CD8+ T Cells CD69 %: 11.6%
  CD8+ T Cells CD69 Fold vs DMSO: 2.5 fold
  Monocytes CD11c %: 1.5%
  Monocytes CD11c Fold vs DMSO: 2.1 fold
  Monocytes CD69 %: 7.9%
  Monocytes CD69 Fold vs DMSO: 2.6 fold
  Monocytes CD80 %: 77.4%
  Monocytes CD80 Fold vs DMSO: 2.7 fold
  NK Cells CD25 %: 4.8%
  NK Cells CD25 Fold vs DMSO: 9.6 fold
  NK Cells CD69 %: 20.1%
  NK Cells CD69 Fold vs DMSO: 11.8 fold
Increased expression of CD25 and CD69
  Concentrations of maximal activation of NK cells: 1000 nM
Increased expression of CD69 and CD80
  Concentrations of maximal activation of B cells: 3000 nM
